Literature values in US10720228B2, “Method and system for testing of active molecules using molecular simulation of skin membrane” (Tata Consultancy Services Limited, priority 2016, dated 2020).

Settings: 323 K

SMILES: O [water]
- experimentally observed free energy of water solvation in hexadecane: 5.98 kcal/mol
